What all share (test): Ellman assay, […] nm
Type in all cases: biochemical

Test [1] has as its target T1, hBChE (human butyrylcholinesterase) (Homo sapiens, UniProt P06276).
T1 construct: gene BCHE

For test [2], the target named is T2, hAChE (human acetylcholinesterase) (Homo sapiens, UniProt P22303).
T2 construct: gene ACHE

The target in test [3] is T1, hBChE (human butyrylcholinesterase). This is another data set of the same source.

Where two headings read alike, the source gives them in different places.

T1 sequence (P06276 29-602): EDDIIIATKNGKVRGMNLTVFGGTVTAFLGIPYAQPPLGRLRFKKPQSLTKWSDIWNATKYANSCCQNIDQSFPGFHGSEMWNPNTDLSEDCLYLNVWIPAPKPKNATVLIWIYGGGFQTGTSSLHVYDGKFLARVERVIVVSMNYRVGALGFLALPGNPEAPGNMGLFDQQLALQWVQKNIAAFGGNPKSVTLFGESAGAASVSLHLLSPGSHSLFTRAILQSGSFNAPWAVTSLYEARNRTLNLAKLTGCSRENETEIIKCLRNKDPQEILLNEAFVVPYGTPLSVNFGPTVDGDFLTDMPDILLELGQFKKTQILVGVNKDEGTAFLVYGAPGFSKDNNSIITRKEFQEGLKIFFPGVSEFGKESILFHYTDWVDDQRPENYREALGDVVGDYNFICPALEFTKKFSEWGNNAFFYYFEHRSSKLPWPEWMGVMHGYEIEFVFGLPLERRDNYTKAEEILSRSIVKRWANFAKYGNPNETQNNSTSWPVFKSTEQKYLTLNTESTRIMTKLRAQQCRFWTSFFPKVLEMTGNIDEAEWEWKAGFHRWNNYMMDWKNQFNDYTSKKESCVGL
T2 sequence (P22303 32-614): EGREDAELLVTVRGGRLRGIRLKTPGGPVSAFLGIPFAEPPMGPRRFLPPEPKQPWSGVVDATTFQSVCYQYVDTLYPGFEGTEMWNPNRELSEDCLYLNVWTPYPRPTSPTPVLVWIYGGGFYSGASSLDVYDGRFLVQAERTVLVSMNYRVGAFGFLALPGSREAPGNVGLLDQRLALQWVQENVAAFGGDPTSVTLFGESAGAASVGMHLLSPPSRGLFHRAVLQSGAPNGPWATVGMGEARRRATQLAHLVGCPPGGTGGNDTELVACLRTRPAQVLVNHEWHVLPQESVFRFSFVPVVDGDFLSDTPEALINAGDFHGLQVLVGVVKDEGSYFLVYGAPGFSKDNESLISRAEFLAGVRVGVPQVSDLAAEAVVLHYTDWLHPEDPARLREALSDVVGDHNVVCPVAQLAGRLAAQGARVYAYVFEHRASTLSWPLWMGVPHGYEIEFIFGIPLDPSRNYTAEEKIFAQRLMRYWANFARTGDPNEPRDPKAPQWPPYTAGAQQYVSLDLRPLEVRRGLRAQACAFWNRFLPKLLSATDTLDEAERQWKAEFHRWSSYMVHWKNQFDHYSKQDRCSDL

For `O=C(F)N1CCC(Cc2ccccc2)CC1` [3g, 4-Benzylpiperidine-1-carbonyl Fluoride], the IC50 was found to be 2.78 ± 0.15 nM in test [1] (read-out: hBChE) and 0.554 ± 0.079 µM in test [2] (read-out: hAChE).

On to `O=C(F)N1CCN(c2ccccc2F)CC1` [3j, 4-(2-Fluorophenyl)piperazine-1-carbonyl Fluoride], for which the IC50 in test [1] amounted to 656 ± 32 nM; in test [2], 10.7 µM.

For `O=C(F)N1CCc2ccccc2C1` [3f, 3,4-Dihydroisoquinoline-2(1H)-carbonyl Fluoride], the figures for the IC50 in test [1] (read-out: hBChE) and in test [2] (read-out: hAChE) were 707 ± 122 nM and 22.6 µM, respectively.

As to `CN(C(=O)F)c1cccc2cc[nH]c12` [3k, (1H-Indol-7-yl)(methyl)carbamic Fluoride], the results for the IC50 in test [1] (read-out: hBChE) and in test [2] (read-out: hAChE) were 5.56 ± 0.83 nM and 0.151 ± 0.008 µM, respectively.

As to `C#CCCCCCCCCCN(C)C(=O)F` [3i, Methyl(undec-10-yn-1-yl)carbamic Fluoride], the IC50 is 197 ± 36 nM in test [1] and 5.07 ± 1.15 µM in test [2].

Consider `O=C(F)N1CCC(c2c[nH]c3ccccc23)CC1` [3h, 4-(1H-Indol-3-yl)piperidine-1-carbonyl Fluoride], for which the figures for the IC50 in test [1] and in test [2] were 23.5 ± 4.6 nM and 18.7 µM, respectively.

Take `O=C(F)N1Cc2ccccc2C1` [3e, Isoindoline-2-carbonyl Fluoride]: the IC50 in test [1] (read-out: hBChE) worked out at 32200 nM; in test [2] (read-out: hAChE), 103 µM.

Turning to `O=C(F)N(Cc1ccccc1)Cc1ccccc1` [3b, Dibenzylcarbamic Fluoride], the IC50 in test [1] (read-out: hBChE) stood at 69.6 ± 4 nM; in test [2] (read-out: hAChE), 2.2 ± 0.27 µM.

On to `CN(Cc1ccccc1)C(=O)F` [3a, Benzyl(methyl)carbamic Fluoride], for which the IC50 in test [1] (read-out: hBChE) stood at 156 ± 9 nM; in test [2] (read-out: hAChE), 5.65 ± 0.947 µM.

For the molecule `O=C(F)N1CCc2ccccc21` [3d, Indoline-1-carbonyl Fluoride], the activity at 100 µM in test [3] was found to be 56.2 ± 3.7%. The IC50 in test [2] (read-out: hAChE) stood at 4.62 ± 1.15 µM.

`CCCCN(Cc1ccccc1)C(=O)F` [3c, Benzyl(butyl)carbamic Fluoride]: the IC50 came to 2430 ± 400 nM in test [1] and 4.48 ± 1.14 µM in test [2].
